Our source for the IC50 values is PubChem BioAssay AID2305 (GlaxoSmithKline (GSK), 2010).

In general, IC50 refers to the concentration that gives 50% inhibition.

The assay has as its system P. falciparum 3D7 growth, pLDH absorbance. Nature of the assay: blood-stage malaria parasite growth potency – strain 3D7, dose response (AID 2305).
Compound `O=C(Nc1ccc(F)c(Cl)c1)NC1CCN(c2ccnc3cc(Cl)ccc23)C1` (configuration not stated) returned an IC50 of 210 nM.

For `O=C(NCc1ccc(Cl)cc1)c1ccc(C(=O)NCC2CCCN2CC2CCCCC2)cc1` (configuration not stated), the IC50 amounted to 850 nM.

The compound `COc1cccc(OC2CCN(C(=O)c3ccc(-c4ccc(N5CCCC5=O)cc4C)cc3)CC2)c1` displayed an IC50 of 1010 nM.

The compound `Cc1cccc2c(C(=O)NC3CCN(Cc4ccccc4)CC3)cc(-c3cccnc3)nc12` yielded a half-inhibitory concentration (IC50) of 1380 nM. Then `Cc1cccc2[nH]c(-c3cc(-c4cn[nH]c4)cnc3N)nc12`, with 220 nM; and `Oc1ccc(CCNc2nc(NCCCOc3cc(CN4CCCCC4)ccc3F)nc(N3CCNCC3)n2)cc1`, with 1760 nM; and `Cc1noc(-c2ccccc2)c1NC(=O)NC1CCN(CCCCCNC(=O)/C=C/c2ccc(Cl)c(Cl)c2)CC1`, with 990 nM. The compound `O=S(=O)(c1csc2ccccc12)N(CCC(O)(C(F)(F)F)C(F)(F)F)Cc1cccc(O)c1` had a half-maximal inhibitory concentration (IC50) of 360 nM. The compound `CCc1cn(CCCOC)c2ccc(C(=O)N[C@@H](Cc3ccccc3)[C@H](O)CNCc3cccc(C(F)(F)F)c3)cc12` showed an IC50 of 190 nM. For `CCCCC(=O)Nc1nonc1-c1ccc(OCC)c(OCC)c1`, the IC50 was found to be 910 nM. `CC(C)n1ncc2c(C(=O)Nc3ccc(C#N)c(Cl)c3)cc(C3CC3)nc21`: the concentration for half-maximal inhibition (IC50) amounted to 960 nM. Then `O=C(C=Cc1ccc(Cl)c(Cl)c1)NCCCCCN1CCC(CCCNC(=O)[C@@H]2C[C@H]2c2ccccc2)CC1`, with 770 nM; and `COc1ccc(Cl)cc1NC(=O)Nc1ccnc2ccccc12`, with 680 nM; and `CNCCN(C)C(=O)Oc1c(Br)c(C)nc(C)c1-c1ccc(Oc2ccc(OC(F)(F)F)cc2)cc1`, with 110 nM.

In the case of `Cc1cc(Cl)c(S(=O)(=O)N2CCc3ccccc32)cc1OCC(=O)NC1CCCCC1`, the half-maximal inhibitory concentration (IC50) came out at 300 nM.

Compound `CCCCN1CCN(c2cc(NS(=O)(=O)c3ccc(C(=O)Nc4ccc(C(F)(F)F)cc4)cc3)ccc2OC)CC1` displayed an IC50 of 660 nM. Then `CC(C)COc1ccc(Cl)cc1Cc1nc(-c2nc3c(CN4CCN(C)CC4)cccc3[nH]2)cs1`, with 1330 nM.

`COc1ccc(OCC(=O)Nc2cc(-c3nc4ccccc4[nH]3)ccc2Cl)cc1` registered an IC50 of 900 nM. Then `CCCCCCOc1ccccc1C(=O)NCCOc1ccc(Cl)cc1`, with 1210 nM; and `CC(C)(C)c1ccc(CN2CCC(CNC(=O)c3cc(-c4ccccc4Cl)cs3)C2)cc1` (configuration not stated), with 860 nM. Turning to `COc1cccc(OC)c1C(=O)N1CCC2(CC1)C(=O)N(CC(=O)NC1CCCCC1)CN2c1ccccc1`, the half-maximal inhibitory concentration (IC50) was found to be 950 nM. Then `CCCCCCn1c2c(c(=N)c3c1CCC3)CCCC2`, with 290 nM. In the case of `O=C(Nc1ccc(Cl)cc1)NC1CCN(CCCCCNC(=O)[C@@H]2C[C@H]2c2ccc(Cl)c(Cl)c2)CC1`, the IC50 was determined as 580 nM. Then `c1ccc(CCNCc2ccc(-c3ccc(CNCc4ccc5c(c4)OCO5)cc3)nc2)cc1`, with 1250 nM.

For `COc1ccc2c(NN=Cc3cccnc3)cc(C)nc2c1`, the IC50 was determined as 990 nM. Then `C=Cc1sc(CNCCCNc2cc(=O)c3ccccc3[nH]2)c(C)c1Br`, with 1050 nM; and `Cc1cc(NC(=O)c2cc(Br)ccc2Cl)n(-c2nc(C)c(C)c(=O)[nH]2)n1`, with 1130 nM. With `CC[C@H](C)CNC(=O)c1cncc(-c2cccc(CNC3Cc4ccccc4C3)c2)c1`, the IC50 stood at 590 nM. Then `C#CCNC(=O)c1ccc(-c2ccnc(Nc3cccc(CCCN4CCOCC4)c3)n2)s1`, with 1000 nM; and `c1cc(CNCc2ccc3c(c2)OCO3)cc(-c2cccc(CNc3ccc4ncccc4c3)c2)c1`, with 760 nM. Then `O=C(c1csc(-c2cccnc2)n1)N1CCc2cc3nccc(N4CCN5CCC[C@H]5C4)c3cc21`, with 700 nM; and `O=C(Nc1ccccc1F)NC1CCN(c2ccnc(Nc3ccc(F)cc3)n2)C1` (configuration not stated), with 850 nM; and `Cc1[nH]c(C)c(-c2ccc(Oc3ccc(S(C)=O)cc3)cc2)c(=O)c1Br` (configuration not stated), with 760 nM. Then `CNC(=O)c1ccccc1Nc1nc(Nc2ccc(CCN3CCN(C)CC3)cc2)ncc1Cl`, with 650 nM.

Regarding `Cc1cccc(Nc2nccc(Nc3cccc(C(=O)NCCN4CCOCC4)c3)n2)c1`, the IC50 is 1420 nM. Then `CC(C)Cn1ccc2c3c(N)nc(N)nc3ccc21`, with 30 nM. With `CNS(=O)(=O)CCNCc1ccc(-c2ccc3ncnc(Nc4ccc(OCc5ccccc5)cc4)c3c2)o1`, the IC50 turned out to be 730 nM. For the compound `CC(C)N1CCC(NCc2ccc(-c3ccc(Cl)cc3)cc2)CC1`, the IC50 came out at 650 nM. Compound `Nc1ncc(-c2cccc(OCc3ccccc3)c2)cc1-c1nnc2ccc(Cl)nn12` returned an IC50 of 1430 nM. Then `Cc1cccc2[nH]c(-c3cccc(-c4cccc(NC(=O)CC5NC(=O)c6ccccc65)c4)c3)nc12` (configuration not stated), with 1030 nM; and `COc1cc2nc(N3CCN(C(=O)c4cccc(I)c4)CC3)nc(N)c2cc1OC`, with 1320 nM. Then `CN1CCN(c2cc(-c3cccc(C(F)(F)F)c3)nc(-c3ccncc3)n2)CC1`, with 730 nM; and `CC(C)(C)c1ccc(Cc2cccc3nc(N)nc(N)c23)cc1`, with 830 nM; and `O=C(c1ccccc1)[C@H]1C[C@@H]1CN1CC=C(c2c[nH]c3ccccc23)CC1`, with 530 nM. Then `CCNc1cc(C(=O)N[C@@H](Cc2ccccc2)[C@H](O)CNC2(CC)CC2)cc(N2CCCCS2(=O)=O)c1`, with 1610 nM; and `N=C(N)CCN(Cc1ccc(Cl)cc1)c1ccc(Cl)cc1`, with 1060 nM; and `C=CC[C@@H](C(=O)OCC)[C@@H]1[C@@H](N(CC=C)C(=O)OC(C)(C)C)CCN1C(=O)OCc1ccccc1`, with 960 nM. On to `CCn1c(C(C)C)cc2c3c(N)nc(N)nc3ccc21`, for which the 50% inhibitory concentration (IC50) came to 10 nM. `CC(C)C(NC(=O)c1c(F)cccc1F)C(=O)Nc1ccc(Cc2nc3ccccc3s2)cc1` (configuration not stated) had an IC50 of 450 nM.

Turning to `COC(=O)c1cccc(CNCc2cccc(-c3ccc(-c4nc5c(C)cccc5[nH]4)s3)c2)c1`, the IC50 came out at 210 nM. Turning to `COc1ccc(C2CCN(CCCCNC(=O)c3ccc(NC(=O)c4ccc(Cl)cc4)cc3)CC2)c(OC)c1`, the IC50 was 570 nM. Then `Cc1ccc2c(OCCN3CCC(Cc4ccc5c(c4)NC(=O)CO5)CC3)cc(F)cc2n1`, with 750 nM. `O=C(Nc1ccc(-c2ccccc2)s1)N[C@H]1CCN(Cc2ccc(OCCCN3CCCCC3)cc2)C1` came in with an IC50 of 740 nM. Then `COC(=O)C1=C(C)NC2=C(C(=O)CC(c3ccc(OC)c(OC)c3)C2)C1c1cccc(O)c1` (configuration not stated), with 730 nM. Then `COc1cccc2c(NN=Cc3ccccc3[N+](=O)[O-])ccnc12`, with 590 nM. Then `CCCCCCCc1c(C)[nH]c2ccc(F)cc2c1=O`, with 290 nM; and `O=C(NC1CCCCC1)C(c1cccs1)N(CCc1ccccc1)C(=O)c1ccco1` (configuration not stated), with 1040 nM; and `O=C(c1cccc(-c2cccc(-c3nc4ccccc4[nH]3)c2)c1)N1CCCCC1CN1CCC(O)C1` (configuration not stated), with 730 nM. `COc1cc2nc(Nc3ccc4c(cnn4Cc4ccccc4)c3)nc(Nc3ccc4c(cnn4Cc4ccccc4)c3)c2cc1OC`: the IC50 was 190 nM. Turning to `NC1=NC2(CCCCC2)N(OCCCCCCN2C(=O)c3ccccc3C2=O)C(N)=N1`, the half-maximal inhibitory concentration (IC50) was 870 nM. Then `Cc1cc(N[C@@H](Cc2ccccc2)C(=O)NCc2cccs2)nc(NCC2CCCCC2)n1`, with 990 nM; and `CCn1c(O)c(N=NC(=S)N2CCCC2)c2ccccc21`, with 1000 nM; and `O=C(Nc1ccc(OC2CCN(Cc3ccc(F)cc3)CC2)c(Cl)c1)c1ccoc1`, with 1180 nM. Then `Cc1cccc2[nH]c(-c3ccc(-c4ccc(NC(=O)Nc5ccc(Cl)c(Cl)c5)cc4)cc3)nc12`, with 830 nM.

`Cn1cncc1C(=O)Nc1ccc(-c2cccc(-c3nc4ccc(F)cc4[nH]3)c2)cc1` returned an IC50 of 820 nM. Then `O=S(=O)(NCCN1CCCC1)c1cccc(-c2ccc(CNCc3ccccc3)cc2)c1`, with 1000 nM; and `Cc1ccc(OCC2CCN(c3ncc(C(=O)NC4CC4)cc3Cl)CC2)cc1`, with 1090 nM. Then `Cc1cc(-c2ccc(CNC3Cc4ccccc4C3)cc2)ccc1S(=O)(=O)NCCN1CCCC1`, with 700 nM; and `Cc1cc(CNCCCCCCNCc2ccc(-c3ccccc3)cc2)ccc1O`, with 900 nM; and `O=C(NC1CCN(Cc2ccsc2)CC1)c1ccc(-c2cccc(C(F)(F)F)c2)s1`, with 1440 nM.

As to `C=CCN(c1ccc(OC)cc1)S(=O)(=O)c1ccc(Cl)c(C(=O)Nc2cccc(C#N)c2)c1`, the IC50 is 580 nM. Then `NC(=O)c1ccsc1NC(=O)CNC(c1ccccc1)c1ccc(Cl)cc1` (configuration not stated), with 260 nM. For the compound `COC(=O)c1cccc(CNCc2ccc(-c3ccc(-c4nc5ccc(F)cc5[nH]4)cc3)cc2)c1`, the 50% inhibitory concentration (IC50) turned out to be 240 nM. Then `Cc1cc2[nH]c(-c3ccc(C(=O)NCCCN4CCN(c5cccc(Cl)c5)CC4)cc3)nc2cc1Cl`, with 770 nM; and `CC(C)(C)Oc1ccc(CC2NC3(C(=O)N(Cc4ccc(C(C)(C)C)cc4)c4ccccc43)C3C(=O)N(c4ccc(Br)cc4)C(=O)C23)cc1` (configuration not stated), with 720 nM; and `CC1Cc2ccccc2N1S(=O)(=O)c1cccc(C(=O)Nc2nc(-c3ccccn3)cs2)c1` (configuration not stated), with 1320 nM.

`CCCCCCCCN1CCN(CCCCCCNc2c3ccccc3nc3ccccc23)CC1` showed an IC50 of 160 nM. Then `O=[N+]([O-])c1ccccc1C=NNc1c2c(nc3ccccc13)CCCC2`, with 310 nM; and `CN(C)C(=S)N=Nc1c(O)[nH]c2ccccc12`, with 1050 nM. Then `Cc1ccc(F)cc1S(=O)(=O)N1CCCCC(c2ccc(C(F)(F)F)cc2)=N1`, with 940 nM; and `O=C(/C=C/c1ccc(Cl)c(Cl)c1)N1CCC(CN2CCC(c3c[nH]c4cc(C(F)(F)F)ccc34)CC2)CC1`, with 800 nM; and `Cc1cccc(NC(=O)NCc2ccccc2)n1`, with 940 nM. `Cn1cc(CN2CCCC(COC(c3ccccc3)c3ccccc3)C2)cn1` (configuration not stated) showed an IC50 of 770 nM. Then `CN1CCN(c2cc(-c3cccnc3)nc(-c3ccncc3)n2)CC1`, with 550 nM. Then `CCOC(=O)c1ccc(NC(=O)NC2CCN(CCCCCNC(=O)/C=C/c3ccc(Cl)c(Cl)c3)C2)cc1` (configuration not stated), with 490 nM. Then `CS(=O)(=O)Nc1cccc(-c2cnc3[nH]cc(-c4ccc(C(=O)O)cc4)c3c2)c1`, with 860 nM; and `CC1CCC(C[C@@H](C(=O)N[C@H](C(=O)Nc2nccs2)[C@@H](C)O)[C@H](CCC(F)(F)F)N(O)C=O)CC1` (some centres not stated), with 540 nM.
